Laboratory results taken from patent US8389002B2, “Anti-cancer medicine both for diagnosing and treating cancer” (Youl Chon Chemical Co., Ltd., priority 2007, dated 2013).

What was measured:
[1] = Pharmacokinetics: change in blood plasma concentration as time goes by; details: male, Sprague-Dawley, rat, iv, 10 mg/kg
Protocol: The Sprague Dawley (SD) adult male rat was slightly anesthetized with ketamine and acepromazine. Then, the femoral vein was subject to cannulation with physiological salt solution and the artery was subject to cannulation with polyethylene tubing (PE-50, intramedic, Clay-Adams) in which the physiological salt solution of 40 I.U./mL was filled, for which the heparin treatment was performed. […] At 0 (blank), 1, 5, 15, 30, 60 and 120 minutes after the administration, the blood 0.3 mL was respectively sampled, which was then centrifugally separated (13,000 rpm, 3 minutes) to separate about 0.1 mL of the blood plasma. Then, it was deproteinated and then analyzed with HPLC.
It was used the HPLC method using a reverse phase C-18 column (Shim-pack CLS-ODS, 4.6 mm I.D. 250 mm L., […] particle diameter). To the sampled blood plasma 0.1 mL were applied an internal standard material solution 50 μL ([…] daunomycin), the methanol 100 μL and the ethyl acetate 1.0 mL. The mixture solution was subject to vortexing for 3 minutes and centrifugally separated for 3 minutes (3,000 rpm) to take the organic layer only (1.0 mL), which was then dried with speed-vac. The remnants were re-composed into a moveable phase of 300 μL and 100 μL of which was then directly injected to a HPLC system. As the moveable phase of the HPLC system, a solution of the deionized water (pH=2.5 by phosphoric acid):acetonitrile=6:4 was used and a flow rate was 1 mL/min. As a HPLC detection method, a fluorescent analysis method was used at 470 nm excitation wavelength and 565 nm emission wavelength. The doxorubicin standard solution for making a calibration curve was made by dissolving it in the methanol so that it became 0.05, 0.1, 0.5, 1 and 3 μg/mL. When preparing a biological sample calibration curve, the standard solution 100 μL of doxorubicin 0.05, 0.1, 0.5, 1 and 3 μg/mL was put instead of methanol 100 μL for pre-treatment. Then, a calibration curve was made from which the doxorubicin in the blood plasma was obtained.

[2] = test system: hepatoma; assay: Tumor growth after administration in hepatoma model rat (MRI); format: in vivo; details: hepatoma SD-rat, 2 mg/kg tail vein, three times every 5 days, one week after last injection
Protocol: In order to make a hepatoma model, the water in which diethyl nitrosamine was diluted in a ratio of 1:10,000 was supplied to 8 weeks old SD-rat every day for 12 weeks until the tumor was generated. […] It was checked with MRI whether the tumor was after 10 weeks breeding. […] Again, the MRI photographing was made. The phleboclysis was performed three times every 5 days. Then, at one week after the last phleboclysis, the sizes of the tumors were compared through the MRI photographing.

- clearance ([1]; in vivo): 37.9 ± 15.8 mL/min/kg
- half-life ([1]; in vivo): 51.6 ± 34 min
- AUC [1]: 4850 ng·h/mL
SMILES: COc1cccc2c1C(=O)c1c(O)c3c(c(O)c1C2=O)C[C@@](O)(C(=O)CO)C[C@@H]3O[C@H]1C[C@H](N)[C@H](O)[C@H](C)O1 [FD, doxorubicin]
- size of the tumor in MRI photograph [2]: became larger
